# Measured values reported in article PMC10667598 (Scientific Reports, 2023).
# Molecular target: T1, VcCBP (Vibrio cholerae, UniProt Q9KUA3)
# T1 construct: gene VC_0620
# T1 sequence (Q9KUA3 28-556 limits assumed): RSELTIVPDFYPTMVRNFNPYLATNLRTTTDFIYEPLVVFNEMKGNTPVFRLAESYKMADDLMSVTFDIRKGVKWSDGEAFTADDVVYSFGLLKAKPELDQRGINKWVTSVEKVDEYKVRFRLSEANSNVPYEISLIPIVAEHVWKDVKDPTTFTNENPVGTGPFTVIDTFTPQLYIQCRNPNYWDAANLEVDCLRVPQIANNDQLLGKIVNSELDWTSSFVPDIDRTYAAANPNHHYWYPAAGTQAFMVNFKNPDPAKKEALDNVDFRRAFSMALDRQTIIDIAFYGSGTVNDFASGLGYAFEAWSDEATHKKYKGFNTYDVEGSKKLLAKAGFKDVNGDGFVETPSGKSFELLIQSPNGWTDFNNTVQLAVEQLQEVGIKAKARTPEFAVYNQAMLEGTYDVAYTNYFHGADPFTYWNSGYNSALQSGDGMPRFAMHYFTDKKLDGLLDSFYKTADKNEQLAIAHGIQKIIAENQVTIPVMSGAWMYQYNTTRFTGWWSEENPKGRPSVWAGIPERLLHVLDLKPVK
smiles,measurement,value
CC(=O)N[C@H]1[C@H](O[C@H]2[C@H](O)[C@@H](NC(C)=O)C(O)O[C@@H]2CO)O[C@H](CO)[C@@H](O)[C@@H]1O (stereo partly shown) [(GlcNAc)2],Kd,0.245 µM
